Measurements reported in patent publication US12150929B2, “Compositions and methods for the treatment of depression” (Janssen Pharmaceuticals, Inc., priority 2021, dated 2024).
Read-outs that look alike come from different tables or passages of the source.

Experiments:
[1] = Maximum plasma concentration (Cmax) of aticaprant, Example 1; format: in vivo; conditions: human, oral, 10 mg, eITT, read-out: Cmax, Arithmetic Mean (SD)
Experimental: Aticaprant was supplied as 5-mg capsules. Placebo was supplied as matching capsules. All subjects took 2 capsules QD. The capsules were taken daily from Day 2 to Day 78 in fasting condition with some water (fasting for at least 4 hours before dosing). Medication was taken before breakfast. If the subject has forgotten to take the medication before breakfast, this was done before the next following meal, at the latest at dinner of the same day. If the subject remembered later than dinner, the dose of that day was omitted, and the subject took the dose before breakfast on the next day.
Cmax is defined as maximum plasma concentration of aticaprant. […] Here ‘N’ (number of subjects analyzed) includes the number of subjects evaluable for this endpoint. Here ‘n’ (number analyzed) included all subjects evaluable for specified time point categories.

[2] = Weight change, Example 1; format: in vivo, human
Experimental: Treatment with aticaprant as described herein has several advantages over the treatments in the art. […] As used herein, the term “weight gain” refers to an increase in the weight of patient, relative to the weight of the patient before taking aticaprant or the weight of the patient that is assessed at the time of the initial administration of the aticaprant. In certain embodiments, the patient may actually see a decrease in overall weight, relative to the weight of the patient before taking aticaprant.
At the lead-in baseline timepoint, the mean weight for subjects in the placebo group was 76.17 kg compared to 78.66 in the aticaprant group. After 6 weeks in the double-blind treatment phase, the mean weight in the placebo group was 75.75 kg compared to 78.57 kg in the aticaprant group. […] This is unexpected because other adjunctive treatments for MDD result in a mean weight increase. See, Thase M, et al. J Clin Psych. 2015: 76(9), 1224-1231; Thase, J Clin Psych. 2015, 76(9): 1232-1240; El Khalili, Int J Neuropsychopharmacol. 2010, 13, 917-932; Marcus, J. Clin. Psychopharmacol. […] Nashville, Tenn, ACNP, 2008; Earley, American College of Neuropsychopharmacology, 2007, Annual Meeting Abstracts (Boca Raton, Fla, Dec. 9-13, 2007). Nashville, TN, ACNP, 2007). See, Table 29.

Cc1cc(C)cc(C2CCCN2Cc2ccc(Oc3ccc(C(N)=O)cc3F)cc2)c1 (centres unmarked) [aticaprant, 3-fluoro-4-4-2-(3,5-dimethylphenyl)pyrrolidin-1-yl-methylphenoxybenzamide]
Cmax ([1]; Week 1 (n = 56)): 32.7 ± 10.9 ng/mL | Cmax ([1]; Week 3 (n = 56)): 33.5 ± 11.1 ng/mL | Cmax ([1]; Week 6 (n = 56)): 34.3 ± 11.1 ng/mL | Mean weight, Lead-in Baseline, mean (SE) ([2]; Lead-in Baseline, n = 85): 78.66 (1.65) kg | Mean weight, Screening, mean (SE) ([2]; Screening, n = 85): 78.42 (1.65) kg | Mean weight, Withdrawal Baseline, mean (SE) ([2]; Withdrawal Baseline (after 6 weeks double-blind treatment), n = 85): 78.57 (1.71) kg | Mean weight, Relative % Change ([2]; Withdrawal vs Lead-in, n = 85): −0.11% | mean weight ([2]; after 6 weeks in the double-blind treatment phase): 78.57 kg | weight over the 6-week double blind treatment period ([2]; both groups): remained relatively stable | mean weight ([2]; lead-in baseline timepoint): 78.66 kg | Mean weight, Absolute Change (Withdrawal − Lead-in) ([2]; n = 85): -0.09 kg
